Experimental data published in EPA's ToxRefDB 2.

Experiments:
hamster [1] = conditions: Subchronic oral toxicity in rodents, golden syrian, Feed, dose end: 13 week, group: systemic
rat [2] = conditions: Subchronic oral toxicity in rodents, other, [Not Specified], dose end: 90 day, group: systemic
hamster [3] = conditions: Carcinogenicity; golden syrian; Oral; Feed; dose end: 88 week; group: systemic; systemic / pathology microscopic / pancreas / hyperplasia + systemic / pathology microscopic / prostate / secretory fluid + systemic / …
dog [4] = conditions: Chronic toxicity, beagle, Oral, Feed, dose end: 24 month, group: systemic
hamster [5] = conditions: Carcinogenicity, golden syrian, Oral, Feed, dose end: 91 week, group: systemic
rat [6] = conditions: Multigenerational reproductive toxicity study, sprague dawley, Oral, Feed, dose end: 2 generation
rat [7] = conditions: Combined chronic toxicity/carcinogenicity; fischer; Oral; Feed; dose end: 110 week; group: systemic; systemic / clinical chemistry / cholesterol / cholesterol + systemic / clinical chemistry / creatinine / creatinine + systemic / clinical …
rabbit [8] = conditions: Prenatal developmental toxicity study, new zealand white, Oral, Gavage/Intubation, dose end: 19 GD
mouse [9] = conditions: Carcinogenicity; b6c3f1; Oral; Gavage/Intubation; dose end: 105 week; group: systemic; systemic / in life observation / body weight / body weight + systemic / pathology microscopic / liver / hematopoietic cell proliferation + …
rat [10] = conditions: Carcinogenicity; fischer; Oral; Gavage/Intubation; dose end: 105 week; group: systemic; systemic / in life observation / body weight / body weight + systemic / pathology gross / liver / discolored + systemic / pathology gross / …
rat [11] = conditions: Subchronic oral toxicity in rodents, fischer, Gavage/Intubation, dose end: 14 week, group: systemic, systemic / in life observation / body weight / body weight + systemic / in life observation / body weight / body weight gain + systemic / …
mouse [12] = conditions: Subchronic oral toxicity in rodents, b6c3f1, Gavage/Intubation, dose end: 14 week, group: systemic
rabbit [13] = conditions: Subchronic dermal toxicity, new zealand white, Topical, dose end: 13 week, group: systemic, systemic / pathology gross / skin / scabbing + systemic / pathology microscopic / skin / inflammation + systemic / in life observation / …
rabbit [14] = conditions: Prenatal developmental toxicity study, new zealand white, Oral, Gavage/Intubation, dose end: 27 GD
rat [15] = conditions: Reproduction/developmental toxicity screening test, sprague dawley, Dermal, Topical, dose end: 1 generation
dog [16] = conditions: Chronic toxicity, beagle, Oral, Feed, dose end: 52 week, group: systemic
rat [17] = conditions: Combined chronic toxicity/carcinogenicity, sprague dawley, Oral, Feed, dose end: 24 month, group: systemic
rat [18] = conditions: Prenatal developmental toxicity study, other, Oral, Gavage/Intubation, dose end: 15 GD
rat [19] = conditions: Subchronic oral toxicity in rodents, sprague dawley, Feed, dose end: 90 day, group: systemic
mouse [20] = conditions: Carcinogenicity, cd1, Oral, Feed, dose end: 24 month, group: systemic
[21] = systemic / clinical chemistry / lipids / phospholipids + systemic / organ weight / liver / nos + systemic / organ weight / prostate / nos + …
[22] = systemic / clinical chemistry / lipids / phospholipids + systemic / organ weight / liver / nos + systemic / pathology microscopic / …
[23] = systemic / organ weight / liver / nos
[24] = systemic / organ weight / liver / nos + systemic / hematology / leukocyte (wbc) count differential / leukocyte (wbc) + systemic / hematology…
[25] = systemic / clinical chemistry / [other] / [other] + systemic / clinical chemistry / alanine aminotransferase (alt/sgpt) / alanine …
[26] = systemic / in life observation / body weight / body weight gain
[27] = systemic / in life observation / body weight / body weight gain + systemic / organ weight / heart / nos
[28] = group: offspring, systemic / in life observation / body weight / offspring (pup) weight
[29] = group: parental, systemic / in life observation / body weight / body weight + systemic / in life observation / body weight / body weight gain + systemic / in…
[30] = group: reproductive, reproductive / reproductive performance / implantations / implantations
[31] = group: developmental, developmental / developmental malformation / aortic arch / dilated + developmental / developmental malformation / aortic arch / narrowed + …
[32] = group: maternal, reproductive / reproductive performance / postimplantation loss / postimplantation loss + reproductive / reproductive performance / …
[33] = systemic / in life observation / body weight / body weight gain + systemic / organ weight / liver / absolute + systemic / organ weight / …
[34] = systemic / organ weight / epididymis / nos + systemic / organ weight / testes / nos
[35] = group: developmental, systemic / in life observation / body weight / fetal weight
[36] = group: maternal, systemic / in life observation / body weight / body weight gain + systemic / in life observation / food consumption / food consumption + …
[37] = group: offspring, systemic / in life observation / body weight / offspring (pup) weight + systemic / in life observation / clinical signs / desquamation + …
[38] = group: parental, systemic / in life observation / clinical signs / desquamation + systemic / in life observation / clinical signs / erythema + systemic / …
[39] = systemic / pathology microscopic / prostate / hyperplasia
[40] = systemic / in life observation / body weight / body weight + systemic / in life observation / body weight / body weight gain
[41] = group: developmental, developmental / developmental malformation / bone / unossified
[42] = group: maternal, systemic / in life observation / body weight / body weight + systemic / in life observation / body weight / body weight gain + systemic / …
[43] = systemic / clinical chemistry / calcium / calcium + systemic / organ weight / heart / relative to body weight
[44] = systemic / pathology microscopic / liver / cytomegaly
[45] = systemic / pathology microscopic / liver / cytomegaly + systemic / pathology microscopic / lung / adenoma + systemic / in life observation…

N#Cc1c(Cl)cccc1Cl [Dichlobenil]
LEL (hamster [1]; [21]): 18.8 mg/kg/day
LOAEL (hamster [1]; [21]): 18.8 mg/kg/day
NEL (hamster [1]; [22]): 3.75 mg/kg/day
NOAEL (hamster [1]; [22]): 3.75 mg/kg/day
LEL (rat [2]; [23]): 50 mg/kg/day
LOAEL (rat [2]; [23]): 50 mg/kg/day
NEL (rat [2]; [24]): 5 mg/kg/day
NOAEL (rat [2]; [24]): 5 mg/kg/day
LEL (hamster [3]): 45.6 mg/kg/day
LOAEL (hamster [3]): 45.6 mg/kg/day
NEL (hamster [3]): 9.39 mg/kg/day
NOAEL (hamster [3]): 9.39 mg/kg/day
LOAEL (dog [4]; [25]): 8.75 mg/kg/day
NEL (dog [4]; [25]): 0.5 mg/kg/day
NOAEL (dog [4]; [25]): 1.25 mg/kg/day
LEL (dog [4]; systemic / urinalysis / occult blood / blood): 1.25 mg/kg/day
LOAEL (hamster [5]; [26]): 51 mg/kg/day
NOAEL (hamster [5]; [26]): < 51 mg/kg/day
LEL (hamster [5]; [27]): 51 mg/kg/day
NEL (hamster [5]; [27]): < 51 mg/kg/day
LEL (rat [6]; [28]): 15 mg/kg/day
LOAEL (rat [6]; [28]): 15 mg/kg/day
NEL (rat [6]; [28]): 3 mg/kg/day
NOAEL (rat [6]; [28]): 3 mg/kg/day
LEL (rat [6]; [29]): 100 mg/kg/day
LOAEL (rat [6]; [29]): 100 mg/kg/day
NEL (rat [6]; [29]): 15 mg/kg/day
NOAEL (rat [6]; [29]): 15 mg/kg/day
LEL (rat [6]; [30]): 100 mg/kg/day
LOAEL (rat [6]; [30]): > 100 mg/kg/day
NEL (rat [6]; [30]): 15 mg/kg/day
NOAEL (rat [6]; [30]): ≥ 100 mg/kg/day
LEL (rat [7]): 17.3 mg/kg/day
LOAEL (rat [7]): 17.3 mg/kg/day
NEL (rat [7]): 2.1 mg/kg/day
NOAEL (rat [7]): 2.1 mg/kg/day
LEL (rabbit [8]; [31]): 135 mg/kg/day
LOAEL (rabbit [8]; [31]): 135 mg/kg/day
NEL (rabbit [8]; [31]): 45 mg/kg/day
NOAEL (rabbit [8]; [31]): 45 mg/kg/day
LEL (rabbit [8]; [32]): 135 mg/kg/day
LOAEL (rabbit [8]; [32]): 135 mg/kg/day
NEL (rabbit [8]; [32]): 45 mg/kg/day
NOAEL (rabbit [8]; [32]): 45 mg/kg/day

C=CCc1ccc(OC)c(OC)c1 [Methyleugenol]
LEL (mouse [9]): 37 mg/kg/day
LOAEL (mouse [9]): 37 mg/kg/day
NEL (mouse [9]): < 37 mg/kg/day
NOAEL (mouse [9]): < 37 mg/kg/day
LEL (rat [10]): 37 mg/kg/day
LOAEL (rat [10]): 75 mg/kg/day
NEL (rat [10]): < 37 mg/kg/day
NOAEL (rat [10]): 37 mg/kg/day
LEL (rat [11]): 10 mg/kg/day
LOAEL (rat [11]): 300 mg/kg/day
NEL (rat [11]): < 10 mg/kg/day
NOAEL (rat [11]): 100 mg/kg/day
LOAEL (mouse [12]; [33]): 300 mg/kg/day
NOAEL (mouse [12]; [33]): 100 mg/kg/day
LEL (mouse [12]; [34]): 10 mg/kg/day
NEL (mouse [12]; [34]): < 10 mg/kg/day

ClC=CC[N+]12CN3CN(CN(C3)C1)C2.[Cl-] [N-(3-Chloroallyl)hexaminium chloride]
LEL (rabbit [13]): 50 mg/kg/day
LOAEL (rabbit [13]): > 1000 mg/kg/day
NEL (rabbit [13]): < 50 mg/kg/day
NOAEL (rabbit [13]): ≥ 1000 mg/kg/day
LEL (rabbit [14]; [35]): 16 mg/kg/day
LOAEL (rabbit [14]; [35]): 16 mg/kg/day
NEL (rabbit [14]; [35]): 5.1 mg/kg/day
NOAEL (rabbit [14]; [35]): 5.1 mg/kg/day
LEL (rabbit [14]; [36]): 16 mg/kg/day
LOAEL (rabbit [14]; [36]): 16 mg/kg/day
NEL (rabbit [14]; [36]): 5.1 mg/kg/day
NOAEL (rabbit [14]; [36]): 5.1 mg/kg/day
NEL (rat [15]; [28]): 75 mg/kg/day
LEL (rat [15]; [37]): 225 mg/kg/day
LOAEL (rat [15]; [37]): > 750 mg/kg/day
NOAEL (rat [15]; [37]): ≥ 750 mg/kg/day
LOAEL (rat [15]; [29]): > 750 mg/kg/day
NOAEL (rat [15]; [29]): ≥ 750 mg/kg/day
LEL (rat [15]; [38]): 75 mg/kg/day
NEL (rat [15]; [38]): < 75 mg/kg/day

COc1nc(C)nc(NC(=O)NS(=O)(=O)c2ccccc2OCCCl)n1 [Triasulfuron]
LEL (dog [16]; [39]): 2.5 mg/kg/day
LOAEL (dog [16]; [39]): 25 mg/kg/day
NEL (dog [16]; [39]): < 2.5 mg/kg/day
NOAEL (dog [16]; systemic / pathology microscopic / prostate / hyperplasia + systemic / hematology / erythrocyte (rbc) count differential / erythrocyte (rbc…): 2.5 mg/kg/day
LOAEL (rat [17]; [40]): 221 mg/kg/day
NOAEL (rat [17]; [40]): 32.1 mg/kg/day
LEL (rat [17]; systemic / in life observation / clinical signs / palpable mass): 42.9 mg/kg/day
NEL (rat [17]; systemic / in life observation / clinical signs / palpable mass + systemic / in life observation / body weight / body weight + systemic / in…): 0.4 mg/kg/day
LEL (rat [18]; [41]): 100 mg/kg/day
LOAEL (rat [18]; [41]): 900 mg/kg/day
NEL (rat [18]; [41]): < 100 mg/kg/day
NOAEL (rat [18]; group: developmental, developmental / developmental malformation / bone / unossified + systemic / in life observation / body weight / fetal weight): 300 mg/kg/day
LOAEL (rat [18]; group: maternal, systemic / in life observation / body weight / body weight + systemic / in life observation / body weight / body weight gain): 300 mg/kg/day
LEL (rat [18]; group: maternal, systemic / in life observation / body weight / body weight + systemic / in life observation / body weight / body weight gain + systemic / in…): 300 mg/kg/day
NEL (rat [18]; [42]): 100 mg/kg/day
NOAEL (rat [18]; [42]): 100 mg/kg/day
LEL (rat [19]; [43]): 10 mg/kg/day
NEL (rat [19]; [43]): < 10 mg/kg/day
LOAEL (rat [19]; systemic / in life observation / body weight / body weight + systemic / in life observation / food consumption / food consumption): 500 mg/kg/day
NOAEL (rat [19]; systemic / in life observation / body weight / body weight + systemic / in life observation / food consumption / food consumption + systemic…): 10 mg/kg/day
LEL (mouse [20]; [44]): 129 mg/kg/day
LOAEL (mouse [20]; [44]): 129 mg/kg/day
NEL (mouse [20]; [45]): 1.2 mg/kg/day
NOAEL (mouse [20]; [45]): 1.2 mg/kg/day
